Test results published in ChEMBL document CHEMBL5465560, “Selectivity Literature for EUbOPEN Chemogenomic Library” (2024).
Values belong to the molecule of their own block, whether it stands above or below them.

How the values were obtained:
[1] = target: T1, Mitogen-activated protein kinase 15 (Homo sapiens) (UniProt Q8TD08); test: Selectivity interaction (Rxn Biology Kinase assay) EUB0001632a MAPK15; conditions: at 10 µM
T1 sequence (whole entry): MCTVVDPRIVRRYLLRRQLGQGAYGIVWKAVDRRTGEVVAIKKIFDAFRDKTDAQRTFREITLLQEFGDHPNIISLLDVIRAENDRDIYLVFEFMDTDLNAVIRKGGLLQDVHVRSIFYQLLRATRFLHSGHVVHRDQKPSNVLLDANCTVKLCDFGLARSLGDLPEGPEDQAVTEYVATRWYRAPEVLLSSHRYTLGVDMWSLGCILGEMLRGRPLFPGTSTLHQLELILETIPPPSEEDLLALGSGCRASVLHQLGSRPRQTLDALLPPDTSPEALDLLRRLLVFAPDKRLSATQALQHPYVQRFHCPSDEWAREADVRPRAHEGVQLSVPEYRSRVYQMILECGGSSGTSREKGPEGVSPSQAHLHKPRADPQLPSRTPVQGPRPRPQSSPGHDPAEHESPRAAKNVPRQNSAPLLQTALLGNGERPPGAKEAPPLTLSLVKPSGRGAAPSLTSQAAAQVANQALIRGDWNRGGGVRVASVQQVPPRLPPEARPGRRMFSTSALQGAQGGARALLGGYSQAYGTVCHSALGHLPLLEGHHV

Misshapen-like kinase 1 = Misshapen-like kinase 1 (Homo sapiens, UniProt Q8N4C8); test: Selectivity interaction (SelectScreen profiling (Invitrogen)) EUB0000607a MINK1; conditions: at 2 µM
[2] = target: Ribosomal protein S6 kinase alpha-5 (Homo sapiens) (UniProt O75582); conditions: at 10 µM
SRSF protein kinase 1 = SRSF protein kinase 1 (Homo sapiens, UniProt Q96SB4); test: Selectivity interaction (ActivX KiNativ screen (kinase selectivity in THP-1 cell lysates)) EUB0000639a SRPK1; type: subcellular; conditions: lysate
[3] = target: Serine/threonine-protein kinase PLK3 (Homo sapiens, UniProt Q9H4B4); test: Selectivity interaction (KinomeScan (DiscoverX)) EUB0000045b PLK3
[4] = target: T2, Inhibitor of nuclear factor kappa-B kinase subunit beta (Homo sapiens) (UniProt O14920); test: Selectivity interaction (Kinase panel (KiNativ target engagement assay in Jurkat cells)) EUB0001635a IKBKB; type: cell-based; conditions: Selectivity number of off-targets 0.0, Selectivity number of targets 233.0, Source Knowledge https://www.sciencedirect.com/science/article/pii/S2451945619300674?via%3Dihub, at 1 µM
T2 sequence (whole entry): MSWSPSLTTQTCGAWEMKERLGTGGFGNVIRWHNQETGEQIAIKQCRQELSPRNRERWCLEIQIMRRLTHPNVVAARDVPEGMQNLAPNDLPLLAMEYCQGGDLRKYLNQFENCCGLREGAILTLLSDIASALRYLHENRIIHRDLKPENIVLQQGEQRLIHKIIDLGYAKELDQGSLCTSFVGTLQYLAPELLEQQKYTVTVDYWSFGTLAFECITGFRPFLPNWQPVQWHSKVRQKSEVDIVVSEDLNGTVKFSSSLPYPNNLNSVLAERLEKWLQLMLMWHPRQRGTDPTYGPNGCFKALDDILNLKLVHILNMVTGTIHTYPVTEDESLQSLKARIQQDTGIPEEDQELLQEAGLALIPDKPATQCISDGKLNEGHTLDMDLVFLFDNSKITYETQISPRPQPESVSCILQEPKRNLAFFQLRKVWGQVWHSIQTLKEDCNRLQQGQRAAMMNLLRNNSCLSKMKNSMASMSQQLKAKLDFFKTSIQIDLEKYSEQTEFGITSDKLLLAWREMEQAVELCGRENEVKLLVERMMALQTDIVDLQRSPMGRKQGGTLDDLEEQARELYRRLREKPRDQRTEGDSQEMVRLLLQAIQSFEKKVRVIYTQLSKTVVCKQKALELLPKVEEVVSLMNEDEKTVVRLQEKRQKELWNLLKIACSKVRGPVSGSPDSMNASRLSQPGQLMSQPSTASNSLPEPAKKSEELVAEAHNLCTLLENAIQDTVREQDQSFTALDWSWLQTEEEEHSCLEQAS

[5] = target: Serine/threonine-protein kinase 33 (Homo sapiens) (UniProt Q9BYT3); test: Selectivity interaction (KinomeScan (DiscoverX)) EUB0000229b STK33; conditions: at 10 µM
[6] = target: T3, Serine/threonine-protein kinase Nek9 (Homo sapiens) (UniProt Q8TD19); conditions: at 10 µM
T3 sequence (whole entry): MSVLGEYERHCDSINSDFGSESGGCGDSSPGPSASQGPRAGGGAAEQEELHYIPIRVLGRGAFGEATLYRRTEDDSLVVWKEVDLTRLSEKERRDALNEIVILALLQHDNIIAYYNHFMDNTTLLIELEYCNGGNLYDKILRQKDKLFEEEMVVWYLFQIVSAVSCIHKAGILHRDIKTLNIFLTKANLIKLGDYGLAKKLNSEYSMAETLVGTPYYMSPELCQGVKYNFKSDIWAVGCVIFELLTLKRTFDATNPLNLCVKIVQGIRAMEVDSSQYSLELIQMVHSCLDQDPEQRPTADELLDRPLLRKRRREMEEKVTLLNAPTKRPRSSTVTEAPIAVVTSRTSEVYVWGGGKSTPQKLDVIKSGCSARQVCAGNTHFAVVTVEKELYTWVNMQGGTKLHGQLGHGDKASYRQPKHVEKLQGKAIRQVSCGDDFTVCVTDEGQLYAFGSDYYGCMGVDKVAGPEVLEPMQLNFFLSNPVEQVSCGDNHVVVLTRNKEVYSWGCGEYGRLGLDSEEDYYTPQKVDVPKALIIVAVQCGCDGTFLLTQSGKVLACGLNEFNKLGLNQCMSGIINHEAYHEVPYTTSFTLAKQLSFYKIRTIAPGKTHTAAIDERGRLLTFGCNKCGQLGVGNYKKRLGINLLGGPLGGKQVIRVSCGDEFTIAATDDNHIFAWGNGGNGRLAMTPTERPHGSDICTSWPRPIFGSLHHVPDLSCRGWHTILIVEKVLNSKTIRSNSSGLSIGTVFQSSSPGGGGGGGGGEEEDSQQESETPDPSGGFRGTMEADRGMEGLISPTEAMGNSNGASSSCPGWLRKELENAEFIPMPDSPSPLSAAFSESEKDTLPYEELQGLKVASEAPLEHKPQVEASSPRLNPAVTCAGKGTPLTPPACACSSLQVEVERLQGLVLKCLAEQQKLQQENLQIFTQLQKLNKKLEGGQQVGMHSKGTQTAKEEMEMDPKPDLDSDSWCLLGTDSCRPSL

[7] = target: Calcium/calmodulin-dependent protein kinase type 1 (Homo sapiens) (UniProt Q14012); test: Selectivity interaction (KinomeScan (DiscoverX)) EUB0000618a CAMK1; conditions: at 10 µM
Calcium/calmodulin-dependent protein kinase type 1 (Homo sapiens), sequence (Q14012 whole entry, looked up): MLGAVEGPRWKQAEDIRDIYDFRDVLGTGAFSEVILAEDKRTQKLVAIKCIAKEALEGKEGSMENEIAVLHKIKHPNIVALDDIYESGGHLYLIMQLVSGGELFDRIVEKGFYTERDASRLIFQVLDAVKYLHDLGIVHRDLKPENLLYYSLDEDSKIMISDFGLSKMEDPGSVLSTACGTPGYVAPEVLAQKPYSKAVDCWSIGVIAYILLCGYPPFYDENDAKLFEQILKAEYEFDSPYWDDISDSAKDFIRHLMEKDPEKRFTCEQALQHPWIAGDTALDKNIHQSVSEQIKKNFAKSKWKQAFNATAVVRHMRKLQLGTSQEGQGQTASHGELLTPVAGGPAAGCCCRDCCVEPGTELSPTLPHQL

SRSF protein kinase 1, sequence (Q96SB4 whole entry): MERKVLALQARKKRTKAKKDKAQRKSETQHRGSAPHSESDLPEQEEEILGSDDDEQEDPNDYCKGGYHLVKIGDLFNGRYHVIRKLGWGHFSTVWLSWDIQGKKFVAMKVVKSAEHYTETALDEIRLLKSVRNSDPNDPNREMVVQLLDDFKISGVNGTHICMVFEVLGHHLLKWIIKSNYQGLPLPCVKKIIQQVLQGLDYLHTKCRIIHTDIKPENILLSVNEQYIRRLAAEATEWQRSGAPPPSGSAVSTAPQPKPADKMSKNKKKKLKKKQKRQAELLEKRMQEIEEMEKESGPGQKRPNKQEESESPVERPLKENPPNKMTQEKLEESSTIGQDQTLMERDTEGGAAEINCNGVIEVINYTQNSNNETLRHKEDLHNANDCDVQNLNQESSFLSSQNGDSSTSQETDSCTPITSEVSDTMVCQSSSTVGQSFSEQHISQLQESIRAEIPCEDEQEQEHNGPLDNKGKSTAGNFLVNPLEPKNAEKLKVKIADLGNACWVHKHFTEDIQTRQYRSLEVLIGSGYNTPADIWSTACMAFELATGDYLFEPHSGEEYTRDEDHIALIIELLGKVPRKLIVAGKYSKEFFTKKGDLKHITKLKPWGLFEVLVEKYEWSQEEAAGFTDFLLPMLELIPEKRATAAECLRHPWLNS
Serine/threonine-protein kinase PLK3, sequence (Q9H4B4 whole entry, looked up): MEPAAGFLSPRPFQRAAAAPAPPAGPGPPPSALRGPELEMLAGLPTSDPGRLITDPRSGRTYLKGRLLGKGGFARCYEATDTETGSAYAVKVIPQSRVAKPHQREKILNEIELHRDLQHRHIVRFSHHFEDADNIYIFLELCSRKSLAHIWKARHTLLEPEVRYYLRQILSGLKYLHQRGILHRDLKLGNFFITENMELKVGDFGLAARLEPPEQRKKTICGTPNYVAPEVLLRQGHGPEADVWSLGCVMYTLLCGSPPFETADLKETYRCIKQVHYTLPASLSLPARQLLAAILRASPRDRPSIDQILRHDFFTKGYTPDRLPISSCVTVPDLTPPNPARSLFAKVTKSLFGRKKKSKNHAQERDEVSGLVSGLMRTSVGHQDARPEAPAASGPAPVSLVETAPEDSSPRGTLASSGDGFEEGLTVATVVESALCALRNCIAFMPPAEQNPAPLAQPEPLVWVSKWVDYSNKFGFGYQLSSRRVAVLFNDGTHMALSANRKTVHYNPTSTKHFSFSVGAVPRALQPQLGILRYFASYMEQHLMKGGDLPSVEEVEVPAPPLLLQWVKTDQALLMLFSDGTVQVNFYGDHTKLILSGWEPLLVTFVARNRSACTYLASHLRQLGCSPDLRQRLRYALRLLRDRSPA
Misshapen-like kinase 1, sequence (Q8N4C8 whole entry, looked up): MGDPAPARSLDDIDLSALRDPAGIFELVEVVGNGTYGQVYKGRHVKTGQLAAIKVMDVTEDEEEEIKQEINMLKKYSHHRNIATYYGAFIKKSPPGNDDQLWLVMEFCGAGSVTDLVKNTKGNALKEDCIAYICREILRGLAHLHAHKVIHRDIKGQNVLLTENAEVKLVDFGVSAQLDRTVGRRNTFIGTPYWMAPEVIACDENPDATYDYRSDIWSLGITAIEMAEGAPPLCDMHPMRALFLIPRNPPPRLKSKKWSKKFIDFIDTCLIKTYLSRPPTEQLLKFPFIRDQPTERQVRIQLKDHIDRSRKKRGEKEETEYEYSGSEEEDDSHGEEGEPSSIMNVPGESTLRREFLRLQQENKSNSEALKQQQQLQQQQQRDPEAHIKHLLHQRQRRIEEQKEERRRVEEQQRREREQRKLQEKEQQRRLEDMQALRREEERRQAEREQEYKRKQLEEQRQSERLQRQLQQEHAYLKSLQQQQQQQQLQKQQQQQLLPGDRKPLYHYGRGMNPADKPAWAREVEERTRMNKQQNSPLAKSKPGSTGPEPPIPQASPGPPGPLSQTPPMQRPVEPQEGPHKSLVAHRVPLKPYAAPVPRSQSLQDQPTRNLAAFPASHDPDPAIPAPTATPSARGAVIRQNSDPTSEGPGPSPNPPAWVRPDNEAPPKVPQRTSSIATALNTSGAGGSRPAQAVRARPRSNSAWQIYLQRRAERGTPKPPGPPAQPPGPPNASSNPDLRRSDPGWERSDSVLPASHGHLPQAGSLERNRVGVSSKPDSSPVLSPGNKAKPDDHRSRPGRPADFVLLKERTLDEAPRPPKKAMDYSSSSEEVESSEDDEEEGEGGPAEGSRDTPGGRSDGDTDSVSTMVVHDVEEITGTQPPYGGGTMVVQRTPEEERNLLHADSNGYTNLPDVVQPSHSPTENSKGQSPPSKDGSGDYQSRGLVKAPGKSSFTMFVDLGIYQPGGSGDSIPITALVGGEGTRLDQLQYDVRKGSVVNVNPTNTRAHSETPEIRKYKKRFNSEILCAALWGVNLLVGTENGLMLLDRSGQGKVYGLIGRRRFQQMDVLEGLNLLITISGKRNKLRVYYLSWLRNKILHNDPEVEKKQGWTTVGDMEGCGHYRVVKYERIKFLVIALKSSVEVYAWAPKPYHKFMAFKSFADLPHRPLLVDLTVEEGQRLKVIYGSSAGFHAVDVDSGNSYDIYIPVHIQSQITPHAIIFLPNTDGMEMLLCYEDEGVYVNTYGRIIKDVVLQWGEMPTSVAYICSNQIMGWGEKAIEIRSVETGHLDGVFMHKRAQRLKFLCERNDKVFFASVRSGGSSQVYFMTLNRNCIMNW
Ribosomal protein S6 kinase alpha-5 (Homo sapiens), sequence (O75582 whole entry, looked up): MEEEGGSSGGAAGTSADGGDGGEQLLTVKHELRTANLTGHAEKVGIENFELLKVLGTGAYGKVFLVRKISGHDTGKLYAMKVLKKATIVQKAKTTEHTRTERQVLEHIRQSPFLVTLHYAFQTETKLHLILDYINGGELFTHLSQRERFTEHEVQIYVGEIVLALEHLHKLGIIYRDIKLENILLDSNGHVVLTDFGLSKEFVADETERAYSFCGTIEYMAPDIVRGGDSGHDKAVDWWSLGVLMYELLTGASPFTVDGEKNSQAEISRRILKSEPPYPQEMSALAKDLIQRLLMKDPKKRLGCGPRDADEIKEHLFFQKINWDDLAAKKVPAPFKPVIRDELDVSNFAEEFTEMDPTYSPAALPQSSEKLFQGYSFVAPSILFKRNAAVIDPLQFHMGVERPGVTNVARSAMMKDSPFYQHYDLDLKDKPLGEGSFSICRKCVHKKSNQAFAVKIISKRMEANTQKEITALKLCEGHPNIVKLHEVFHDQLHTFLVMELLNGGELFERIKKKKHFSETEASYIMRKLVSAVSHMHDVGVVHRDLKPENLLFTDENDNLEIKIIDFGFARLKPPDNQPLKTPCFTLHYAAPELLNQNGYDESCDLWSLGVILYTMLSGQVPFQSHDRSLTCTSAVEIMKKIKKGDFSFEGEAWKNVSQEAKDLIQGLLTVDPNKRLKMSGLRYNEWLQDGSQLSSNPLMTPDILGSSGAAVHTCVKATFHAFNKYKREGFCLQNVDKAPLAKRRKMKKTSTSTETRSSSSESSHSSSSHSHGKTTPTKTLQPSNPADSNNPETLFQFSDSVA
Serine/threonine-protein kinase 33 (Homo sapiens), sequence (Q9BYT3 whole entry, looked up): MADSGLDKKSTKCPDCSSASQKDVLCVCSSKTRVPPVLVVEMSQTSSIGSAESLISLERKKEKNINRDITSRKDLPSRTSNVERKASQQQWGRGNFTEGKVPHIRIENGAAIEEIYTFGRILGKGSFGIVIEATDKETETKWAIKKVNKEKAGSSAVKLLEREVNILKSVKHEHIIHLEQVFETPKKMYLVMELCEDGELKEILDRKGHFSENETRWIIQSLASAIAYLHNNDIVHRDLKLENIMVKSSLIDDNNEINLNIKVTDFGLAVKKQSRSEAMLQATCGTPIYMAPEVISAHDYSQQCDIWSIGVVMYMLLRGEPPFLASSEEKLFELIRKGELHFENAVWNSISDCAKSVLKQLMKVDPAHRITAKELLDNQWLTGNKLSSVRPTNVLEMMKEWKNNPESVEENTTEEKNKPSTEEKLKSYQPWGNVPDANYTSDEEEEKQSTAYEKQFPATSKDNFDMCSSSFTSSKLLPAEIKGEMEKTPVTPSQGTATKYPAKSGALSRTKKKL

SMILES: Cn1cc(-n2cnc3c(NCc4nc5cc(Cl)c(Cl)cc5[nH]4)nc(N4CCOCC4)nc32)cn1
% of inhibition [1]: -25.6%

SMILES: CNC(=O)Nc1ccc(-c2nc(N3CC4CCC(C3)O4)c3cnn(C4CCC5(CC4)OCCO5)c3n2)cc1
% of inhibition (Misshapen-like kinase 1): 14%

% of control [2]: 100%
SMILES: CCN(CC)CCCCNc1ncc2cc(-c3cc(OC)cc(OC)c3)c(NC(=O)NC(C)(C)C)nc2n1

% of inhibition (SRSF protein kinase 1; at 0.01 µM): 6.9%
% of inhibition (SRSF protein kinase 1; at 0.04 µM): -23%
% of inhibition (SRSF protein kinase 1; at 0.2 µM): -5.5%
% of inhibition (SRSF protein kinase 1; at 1 µM): 11.7%
% of inhibition (SRSF protein kinase 1; at 5 µM): 19.9%
SMILES: CC[C@@H]1[C@H](F)C(=O)N[C@@H]1COc1nccc2cc(C(N)=O)c(OC)cc12 [ZIMLOVISERTIB]

SMILES: C=CC(=O)Nc1cc(-n2c(=O)ccc3cnc4ccc(-c5ccc(NS(C)(=O)=O)cc5)cc4c32)ccc1C
% of control ([3]; at 1 µM): 100%
% of control ([3]; at 10 µM): 100%

SMILES: C=CC(=O)Nc1ccc(C(=O)Nc2[nH]nc3c2CN(C(=O)N[C@H](CN(C)C)c2ccccc2)C3(C)C)cc1
% of engagement [4]: -20.2%

SMILES: COc1cc(N(C)c2ccnc3ccc(C(F)(F)F)cc23)cc(OC)c1OC
% binding [5]: 92%

SMILES: Cc1cc([C@@H](C)Nc2ccccc2C(=O)O)c2nc(N3CCOCC3)cc(=O)n2c1 [AZD-6482]
% of control [6]: 100%

SMILES: O[C@H]1CC[C@H](Nc2ncc3nc(Nc4c(F)cc(F)cc4F)n([C@H]4CCOC4)c3n2)CC1
% of control [7]: 100%
